Results reported in PubChem BioAssay AID1902 (Broad Institute, 2009).
pEC50: −log10 of the molar value. The source made the active and inactive calls.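 The calls were made as follows: active = EC50 no more than a set limit of log units above the highest dose; inactive = the rest.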

Target: S. pyogenes SKKanGAS, kanamycin survival, BacTiterGlo, 6 h
Assay: S. pyogenes SKKanGAS kanamycin growth inhibitors – SKKanGAS strain, luminescence, dose confirmation, streptokinase promoter inhibitor project, dose response (AID 1902);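 also: lower survival reflects blocked streptokinase promoter driving kanamycin resistance gene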

Row | Structure (SMILES) | pEC50 | EC50
1 | COc1ccc(-c2cc3nc4ccccc4n3c(N)c2C#N)cc1 | 5.38 | –
2 | Cn1nnc(-c2ccc(OCc3ccccc3F)cc2)n1 | 5.02 | –
3 | O=C(OCc1ccccc1)c1cccc(-c2nnn(Cc3ccccc3)n2)c1 | 5.56 | –
4 | c1ccc(CCNc2nc(-c3ccccn3)cs2)cc1 | 5.43 | –
5 | CCN(c1ccc(C)cc1C)S(=O)(=O)c1nnc(NC(=O)c2ccco2)s1 | 5.38 | –
6 | Cc1ccc(-n2c(-c3ccc(Br)cc3)c[n+]3c2CCc2ccc4cccnc4c2-3)cc1 | 5.44 | –
7 | CCOC(=O)c1c(S(=O)(=O)N2CCCCCC2)c(C)n(C)c1C | – | > 15 µM (inactive)
8 | C=CCn1c(N)c(C(=O)Nc2cccc(C)c2)c2nc3ccccc3nc21 | 5.47 | –
9 | COc1ccc(Cc2[nH]n3c(=O)cc(C(C)C)nc3c2-c2ccccc2)cc1 | 5.63 | –
10 | C[C@H]1COc2c(C3(N)CC3)c(F)cc3c(=O)c(C(=O)O)cn1c23 | 5.21 | –
11 | Cc1cc(=O)oc2c3c(cc(OCC(=O)NC4CC4)c12)OC(C)(C)CC3 | – | > 15 µM (inactive)
12 | Cc1ccc(NS(=O)(=O)c2cc([N+](=O)[O-])ccc2NNC(=S)Nc2cccc(Cl)c2)c(C)c1 | 6.06 | –
13 | O=C(NC(=S)NNC(=O)c1cccs1)c1ccco1 | 5.21 | –
14 | COc1ccc(NC2=NCC(Cc3ccc(Br)cc3)S2)cc1 (stereo not drawn) | 4.93 | –
15 | C/C(=N\NC(=O)c1cc2ccccc2cc1O)c1ccc2c(c1)OCO2 | 5.66 | –
16 | CCOC(=O)c1csc(NC(=O)c2ccc3c(c2)OCCO3)n1 | – | > 15 µM (inactive)
17 | CC(NC(=O)Cn1c(=O)[nH]c2ccsc2c1=O)C12CC3CC(CC(C3)C1)C2 (stereo not drawn) | – | > 15 µM (inactive)
18 | COc1ccc(NC(=O)CSc2nc3nc(-c4cccs4)cc(C(F)(F)F)c3c(=O)[nH]2)c(OC)c1 | 5.13 | –
19 | COc1ccc(-c2cc(C3CCN(c4ccc(C(C)=O)cc4[N+](=O)[O-])CC3)[nH]n2)cc1 | 5.56 | –
20 | CN=C1S/C(=C\c2ccc(N3CCOCC3)c(F)c2)C(=O)N1C | 5.31 | –
21 | O=C(O)c1cnc(-c2ccccc2)nc1Sc1ccc(Cl)cc1Cl | 5.01 | –
22 | CCOc1ccc(C(=O)N/N=C(\c2ccccc2)c2ccccn2)cc1 | 5.24 | –

Row | Structure (SMILES) | pEC50 | EC50
23 | c1ccc2c(c1)ncn2CCCOc1ccc2c(c1)CCC2 | 5.13 | –
24 | O=C1c2ccccc2C2=Nc3ccccc3SC(c3ccccc3F)C12 (stereo not drawn) | 5.52 | –
25 | Cc1ccc(NC(=O)CN2C(=O)S/C(=C/c3ccc(-c4cc(C(=O)O)ccc4C)o3)C2=O)cc1C | 5.68 | –
26 | COc1ccc(Nc2ncnc3scc(-c4ccc(OC)cc4)c23)cc1 | – | > 15 µM (inactive)
27 | O=C(Nc1nnc(C2CC2)s1)c1cc(-c2ccccc2)nn1-c1ccccc1 | 5.19 | –
28 | O=C1c2cccc3cccc(c23)C(=O)N1CC1CCN(CC(O)COc2ccc3ccccc3c2)CC1 (stereo not drawn) | 5.17 | –
29 | Cc1ccc(NC(=O)c2cc(N3C(=O)C=CC3=O)ccc2N2CCOCC2)cc1Cl | 4.94 | –
30 | O=C(c1ccccc1Cl)N1CCN(S(=O)(=O)c2cccs2)CC1 | – | > 15 µM (inactive)
31 | Cc1ccc2c(=O)[nH]c(Nc3nc(C)cc(-c4ccccc4)n3)nc2c1 | 5.47 | –
32 | COc1cc(/C=C/C(=O)c2ccc([N+](=O)[O-])o2)ccc1O | 5.53 | –
33 | Cc1ccc2c(c1)C(=O)CC1(CCC(C(C)(C)C)CC1)O2 (stereo not drawn) | 5.52 | –
34 | COC(=O)c1c(NC(=O)c2ccccc2)sc(C(=O)c2ccccc2)c1C | 5.27 | –
35 | Cc1ccc(Cn2c(Cc3ccccc3)nc3ccccc32)cc1 | 4.85 | –
36 | O=C(COc1cccc(Oc2ccccc2)c1)Nc1ccc(SC(F)F)cc1 | 4.89 | –
37 | COc1ccc(Br)cc1[C@H]1[C@@H]2C=CCC[C@@]2(C)C(=O)N1Cc1ccccc1 | 5.31 | –
38 | CC(Nc1nc(-c2ccccc2O)nc2ccccc12)c1ccccc1 (stereo not drawn) | 5.06 | –
39 | O=C(Nc1nnc(SCc2c(Cl)cccc2Cl)s1)C1CC(=O)N(c2ccc3c(c2)OCCO3)C1 (stereo not drawn) | 5.01 | –
40 | Cc1ccc(S(=O)(=O)Nc2cccc3ncccc23)s1 | 5.54 | –
41 | CCCNC1=C(C)C(=O)C2=C(C1=O)C(COC(N)=O)[C@]1(OC)C3NC3CN21 (stereo partly drawn) | > 7.22 | –
42 | COc1cccc(C(=O)OCC(=O)Nc2nnc(-c3ccccc3)o2)c1 | 5.06 | –
43 | Oc1ccc(/C=N/Nc2ccc3ccccc3c2)c(O)c1 | 5.12 | –
